Patent publication US20140128357A1, “METHODS OF PRODUCING AND USING BRASSINOSTEROIDS TO PROMOTE GROWTH, REPAIR AND MAINTENANCE OF SKELETAL MUSCLE AND SKIN” (Rutgers University, priority 2010, published 2014)
Where two headings read alike, the source gives them in different places.

Assays:
L6 rat myotubes [1] = assay: Protein synthesis, [3H]-phenylalanine incorporation in myotubes; assay type: cell-based; conditions: 10 μM; for Protein synthesis (% increase over control): 4 h
Protocol: (§1) In some aspects, cell culture experiments were carried out. Rat L6 skeletal muscle cell line CRL-1458 was obtained from ATCC (Manassas, Va.). Myoblasts were routinely maintained in Dulbecco's modified Eagle's medium (DMEM) containing 10% FBS and 0.1% penicillin-streptomycin at 37° C. and 5% CO2. Cells were subcultured into 24-well plates for protein synthesis, degradation, and cell viability studies and into 6-well plates for Western blot analyses (Greiner Bio One, Monroe, N.C.). Once cells reached 90% confluence, differentiation was induced by lowering the serum concentration to 2%, and medium was changed every 2 days. After 7-9 days of culture the myoblasts had fused into multinucleated myotubes (Mandel et al., Nature 251:618-620, 1974). NIH 3T3 murine embryonic fibroblast cell line (ATCC #CCL-92) was maintained in DMEM and 10% FBS at 37° C. in 5% CO2, and passaged every 3-4 days.
In various aspects, protein synthesis is measured to determine the effect of brassinosteroid on a particular protein. All known methods for measuring protein synthesis are included in the methods of the disclosure. In brassinosteroid dose response studies, fully differentiated myotubes were washed with serum-free DMEM and treated in triplicate with vehicle (0.1% ethanol), increasing concentrations of HB, or 6.5 nM of insulin-like growth factor-1 (IGF-1) as a positive control. Compounds were added to serum-free medium containing 0.5 μCi/mL [^3H]-phenylalanine and incubated for 4 h. For the HB time course study, fully differentiated myotubes were treated with 3 μM HB for 1-24 h using the same culture conditions. The incubation was stopped by placing cells on ice, discarding the medium, and washing the cells extensively with ice-cold PBS to remove the non-incorporated radiolabel. Proteins were precipitated with 5% trichloroacetic acid and dissolved in 0.5N NaOH (Montgomery et al., Methods Cell. Sci. 24:123-129, 2002). Specific radioactivity of protein-bound phenylalanine was quantified using liquid scintillation counter LS 6500 (Beckman Coulter, Fullerton, Calif.) and normalized to mg of total protein determined by BCA protein assay (Pierce Biotechnology, Rockford, Ill.).
The bioactivity of HB and its analogs was evaluated by measuring increases in protein synthesis in the L6 rat skeletal muscle cells in vitro. Cells were incubated for 4 h with [^3H]-phenylalanine and treated in triplicate with vehicle (0.1% ethanol) or test compound (10 μM), and protein synthesis was measured as incorporation of [^3H]-phenylalanine into protein normalized by total protein (Table 3). Under these conditions, both HB and (22S,23S)-homocastasterone increased protein synthesis by 37.2±5.9% (p<0.001) and 41.0±2.7% (p<0.001), respectively. This protein synthesis increase compared favorably to the biological activity of IGF-1 at 6.5 nM (42.5±4.5%, p<0.001) that served as a positive control in this assay. Removal of the 2α-hydroxyl group and fluorination at C-3 in the A ring (compound IDs 3-4 in Table 3) led to about a 50% decrease in bioactivity (24.6±5.3%, p<0.01 and 22.5±2.7%, p<0.01, respectively) compared to the positive control. However, there was still an increase in protein synthesis. […] Modifications in the side chain (compound IDs 7-9 in Table 3) abolished the activity.

L6 rat myotubes [2] = assay: Protein degradation, release of acid-soluble [3H]-phenylalanine; assay type: cell-based; conditions: 10 μM; for Protein degradation (% decrease over control): 4 h
Protocol: as §1, with “After 7-9 days of culture the myoblasts had fused into multinucleated myotubes (Mandel et al., Nature 251:618-620, 1974).” left out
In various aspects, protein degradation is measured to determine the effect of brassinosteroid on a particular protein. All known methods for measuring protein degradation are included in the methods of the disclosure. The effect of brassinosteroids on protein degradation was investigated in fully differentiated myotubes as described by Fawcett et al. (Arch. Biochem. Biophys. 385:357-363, 2001) with slight modifications. Fully differentiated myotubes were incubated for 16 h to allow labeling of cellular proteins with 1.5 μCi/mL [^3H]-phenylalanine. […] The incubation was stopped by placing the cells on ice, and protein in the medium was precipitated with 5% trichloroacetic acid. Specific radioactivity of protein-free phenylalanine was quantified using liquid scintillation counter LS 6500 (Beckman Coulter, Fullerton, Calif.) and normalized to mg of total cell protein determined by BCA protein assay (Pierce Biotechnology, Rockford, Ill.).
The bioactivity of HB and its analogs (as shown in Table 3) were also evaluated by measuring decreases in protein degradation in the L6 rat skeletal muscle cells in vitro. Cells were labeled overnight with [^3H]-phenylalanine and subsequently treated for 4 h in triplicate with vehicle (0.1% ethanol) or test compound (10 μM), and protein degradation was assessed as release of acid-soluble [^3H]-phenylalanine into the media normalized by total protein (Table 3).

[3] = system: NIH 3T3 murine fibroblast cell line; assay: Cytotoxicity, MTT assay in 3T3 fibroblasts; assay type: cell-based, mouse
Protocol: FIG. 9. Cell survival curves as measured by MTT assay for brassinosteroids 1-9 against the murine fibroblast cell line NIH-3T3. Cells were incubated with various concentrations of brassinosteroids (0.3-30 μM) for 24 h at 37° C. The mean absorbance of the control cells represented 100% cell proliferation, and the mean absorbance of treated cells was related to control values to determine sensitivity. Error bars represent standard error (n=6) from mean cell proliferation as determined by repeated experiments.
In various aspects, cell viability is measured and the effects of doses of compound and test reagents are tested in cell lines. In some aspects, cell viability was measured by the MTT (3-(4,5-Dimethylthiazol-2-yl)-2,5-diphenyltetrazolium bromide) assay in triplicate (Mosmann et al., J. Immunol. Methods 65:55-63, 1983) and quantified spectrophotometrically at 550 nm using a microplate reader (Molecular Devices, Sunnyvale, Calif.).
3T3 fibroblasts were seeded in a 96-well flat bottom plate at a density of 1×10^4 cells/well. Cell viability was measured by an MTT (3-(4,5-Dimethylthiazol-2-yl)-2,5-diphenyltetrazolium bromide) assay in triplicate (0.3-30 μM of test substance for […]) essentially as described by Mosmann (J. Immunol. Methods 65, 55-63, 1983) and quantified spectrophotometrically at 550 nm using a microplate reader (Molecular Devices, Sunnyvale, Calif.). […] For cell proliferation studies, cells were treated in triplicate with 0.1-10 μM of test substance for 24 h and assayed using a BrdU (5-bromo-2′-deoxyuridine) kit from Amersham (Uppsala, Sweden).

[4] = system: 3T3 Swiss fibroblast monolayers; assay: Scratch wound closure in vitro; assay type: cell-based, mouse; conditions: for Scratch wound closure at 5 μM, % of control: 12 h (Table 6); for Wound Closure (% over control): 10 μM, 12 h (Table 4)
Protocol: 3T3 fibroblasts were seeded into 24-well dishes at a concentration of 3×10^5 cells/ml and cultured to nearly confluent cell monolayers. On the day of the experiment, a linear wound was generated in the monolayer with a sterile 100 μl plastic pipette tip and any cellular debris was removed by washing cells once with sterile PBS. Fresh DMEM medium containing vehicle (0.1% ethanol), positive control (0.5% FBS), or various concentrations of the fractions, sub-fractions or pure compounds was added to a set of 3 wells per dose and incubated for 12 h at 37° C. with 5% CO2. Cells were then visualized with 20 μl of 10% methylene blue in PBS for 5 min. Three representative images of the scratched areas from each well were photographed at 0 and 12 h to estimate the scratch wound closure. Images were analyzed using ImageJ program (NIH, Bethesda, Md.) and % wound closure was calculated relative to vehicle control and was reported as wound closure % over control (Table 4). 3T3 Swiss fibroblast were seeded into 24-well tissue culture at a concentration of 3×10^5 cells/ml and cultured to nearly confluent cell monolayers. Then, a linear wound was generated in the monolayer with a sterile 100 μl plastic pipette tip. Any cellular debris was removed by washing with PBS. DMEM medium with vehicle (0.1% ethanol), FBS (1%, positive control), or various concentrations of brassinosteroids were added to a set of 3 wells per dose and incubated for 12 h at 37° C. with 5% CO2. Cells were visualized in 10% methylene blue for 5 minutes. Three representative images from each well of the scratched areas under each condition were photographed to estimate the relative migration of cells at 0 and 12 h post-treatment. Data were analyzed using ImageJ software available online from the National Institutes of Health (rsbweb.nih.gov/ij/) by calculating the percentage of scratch closure at each dose point relative to control.

[5] = system: orchiectomized (ORX) Wistar rats; assay: 10-d Hershberger assay in ORX rats, subcutaneous HB (Protocol 4); assay type: in vivo, rat; conditions: 0.4 mg/kg subcutaneous daily 10 d
Protocol: Protocol 4: Four-week-old sham-operated (sham, n=6) or orchiectomized (ORX, n=24) Wistar rats (Charles River Laboratories, MA) were subject to a 10-d Hershberger assay (surgically castrated peri-pubertal adult model) under the following experimental conditions: sham, ORX (vehicle), ORX (0.4 mg/kg HB subcutaneously), ORX (4 mg/kg HB subcutaneously), and ORX (0.4 mg/kg testosterone propionate subcutaneously, serving as a positive control for the assay). All procedures and measurements followed protocol 1. […]

[6] = system: orchiectomized (ORX) Wistar rats; assay type: in vivo, rat; conditions: ORX rats, 0.4 mg/kg subcutaneous 10 d, positive control of oral study
Protocol: Protocol 3: Four-week-old sham-operated (sham, n=6) or orchiectomized (ORX, n=24) Wistar rats (Charles River Laboratories, MA) were subject to a 10-d Hershberger assay (surgically castrated peri-pubertal adult model) under the following experimental conditions: sham, ORX (vehicle), ORX (20 mg/kg HB orally), ORX (60 mg/kg HB orally), and ORX (0.4 mg/kg testosterone propionate subcutaneously, serving as a positive control for the assay). All procedures and measurements followed protocol 1, except no body composition measurements were taken. Limb grip strength was measured for control animals and animals receiving 60 mg/kg HB using a digital force gauge (Wagner Instruments model FDV5) by Product Safety Laboratories (Dayton, N.J.). After the rats were allowed to grip the screen with paws, the animals were quickly pulled until the paws released from the screen, and the required release force was recorded. Three trials on each animal were performed in triplicate, and significance was determined using Student's t test (p<0.05). In addition to the gastrocnemius muscle, androgen-sensitive tissues (ventral prostate, seminal vesicles, bulbocavernosus/levator ani muscle complex, glans penis, and Cowper's gland) were dissected out and weighed.
The muscle samples for histochemical analysis were taken from the middle section of the mixed-fiber gastrocnemius muscle of the castrated animals treated according to protocol 4 (described herein above) to allow for the observation of differences in fiber type distribution and cross-section area associated with ORX and HB treatments. Serial transverse cryosections (10 μm) were prepared from each muscle and were analyzed for myofibrillar adenosine triphosphatase (mATPase) histochemistry after alkaline (pH=9.5) preincubation. Fiber cross-section area and enzyme activity levels were determined from digitized images of the muscle cross-sections that were stored as gray-level pictures using ImageJ software (National Institutes of Health, Bethesda, Md.). […]

Row | Compound | Protein synthesis (% increase over control) (L6 rat myotubes [1]) [%] | Protein degradation (% decrease over control) (L6 rat myotubes [2]) [%] | IC50 [3] [µM] | cytotoxicity compared to the original brassinosteroids [3] | Scratch wound closure at 5 μM, % of control [4] [%] | Wound Closure (% over control) [4] [%] | effect of structural modification on activation of protein synthesis, in words (L6 rat myotubes [1]) | effect of structural modification on protein degradation activity, in words (L6 rat myotubes [2]) | concentration of highest scratch wound closure activity ([4]; 0.1-10 μM, 12 h (FIG. 17)) [µM] | Bulbocavernosus/levator ani weight [5] [mg] | Cowper's gland weight [5] [mg] | Glans penis weight [5] [mg] | Seminal vesicles weight [5] [mg] | Ventral prostate weight [5] [mg] | Bulbocavernosus/levator ani weight [6] [mg] | Cowper's gland weight [6] [mg] | Glans penis weight [6] [mg] | Seminal vesicles weight [6] [mg] | Ventral prostate weight [6] [mg]
1 | CC[C@@H](C(C)C)[C@H](O)[C@@H](O)[C@@H](C)[C@H]1CC[C@H]2[C@@H]3COC(=O)[C@H]4C[C@H](F)CC[C@]4(C)[C@H]3CC[C@]12C [Compound 3, (22S,23S,24S)-3α-fluoro-22,23-dihydroxy-24-ethyl-B-homo-7-oxa-5α-cholestan-6-one] | 24.6±5.3 | −20.8 ± 0.5 | ~30 | increased cytotoxicity | 15.3 ± 2.6 | 15.3 ± 2.6 |  |  |  |  |  |  |  |  |  |  |  |  | 
2 | CC[C@@H](C(C)C)[C@H](O)[C@@H](O)[C@@H](C)[C@H]1CC[C@H]2[C@@H]3CNC(=O)[C@H]4C[C@H](O)[C@H](O)C[C@]4(C)[C@H]3CC[C@]12C [Compound 6, (22S,23S,24S)-2α,3α-22,23-tetrahydroxy-24-ethyl-B-homo-7-aza-5α-cholestan-6-one] | 20.9 ± 2.4 | −0.6 ± 2.9 | > 30 |  | 30.5 ± 4.2 | 27.3 ± 3.6 | reduced biological activity by half | completely abolished its effect on protein degradation | 3 |  |  |  |  |  |  |  |  |  | 
3 | CCC(=O)O[C@H]1CC[C@H]2[C@@H]3CCC4=CC(=O)CC[C@]4(C)[C@H]3CC[C@]12C [testosterone propionate, reference compound] |  |  |  |  |  |  |  |  |  | 293.8 ± 19.0 | 34.3 ± 1.9 | 72.3 ± 4.5 | 228.7 ± 35.3 | 92.8 ± 6.3 | 382.0 ± 22.0 | 34.5 ± 4.7 | 93.8 ± 4.2 | 262.5 ± 12.5 | 110.50 ± 9.5
